The values that follow come from ChEMBL document CHEMBL1255239, “Increases in SLT2 expression and chitin content are associated with incomplete killing of Candida glabrata by caspofungin” (2008).

In assay [1] the test system is Nakaseomyces glabratus. Description: Increase in chitin content in Candida glabrata 200989 at 0.125 to 16 ug/ml after 12 hrs relative to control. In kind it is functional.
For assay [2], the system named is Nakaseomyces glabratus. Nature of the assay: Increase in chitin content in slt2 deficient Candida glabrata 200989 at 0.125 to 16 ug/ml after 12 hrs. It counts as functional, organism-based.
The test system of assay [3] is Nakaseomyces glabratus. Description: Increase in slt2 gene expression in Candida glabrata 200989 at 0.125 to 16 ug/ml after 12 hrs by RT-PCR analysis. It counts as functional, organism-based.
The subject of assay [4] is Nakaseomyces glabratus. Nature of the assay: Increase in slt2 gene expression in Candida glabrata 200989 at 0.125 to 16 ug/ml after 180 mins by RT-PCR analysis relative to control. It counts as functional.
The subject of assay [5] is Nakaseomyces glabratus. Description: Antifungal activity against slt2 deficient Candida glabrata 200989 assessed as log reduction in bacterial count at 16 ug/ml by time-kill analysis. In kind it is functional.
Assay [6] deals with Nakaseomyces glabratus. Description: Antifungal activity against slt2 deficient Candida glabrata 200989 assessed as log reduction in bacterial count at 1 ug/ml by time-kill analysis. In kind it is functional.
The test system of assay [7] is Nakaseomyces glabratus. Nature of the assay: Increase in slt2 gene expression in Candida glabrata 200989 at 0.125 to 16 ug/ml after 10 mins by RT-PCR analysis relative to control. In kind it is functional.
For assay [8], the system named is Nakaseomyces glabratus. Nature of the assay: Antifungal activity against Candida glabrata 200989 assessed as log reduction in bacterial count at 0.125 to 16 ug/ml by time-kill analysis. It counts as functional.
Assay [9] relates to Nakaseomyces glabratus. Description: Increase in CHS3 gene expression in slt2 deficient Candida glabrata 200989 at 0.125 to 16 ug/ml after 180 mins by RT-PCR analysis. In kind it is functional, organism-based.
Assay [10] deals with Nakaseomyces glabratus. Nature of the assay: Increase in CHS3 gene expression in Candida glabrata 200989 at 0.125 to 16 ug/ml after 180 mins by RT-PCR analysis relative to control. It counts as functional.
Assay [11] has as its system Nakaseomyces glabratus. Nature of the assay: Antifungal activity against Candida glabrata 200989 at 0.125 to 16 ug/ml by time-kill analysis. It counts as functional, organism-based.
Assay [12] deals with Nakaseomyces glabratus. Nature of the assay: Antifungal activity against Candida glabrata 200989 at 0 to 32 ug/ml by XTT […] assay. In kind it is functional, organism-based.
Assay [13] concerns Nakaseomyces glabratus. Nature of the assay: Antifungal activity against slt2 deficient Candida glabrata 200989 assessed as log reduction in bacterial count at 0.125 ug/ml by time-kill analysis. It counts as functional.

Calls of active or inactive are those of the source. The rule behind the calls is not given here.

With `CC[C@H](C)C[C@H](C)CCCCCCCCC(=O)N[C@H]1C[C@@H](O)[C@@H](NCCN)NC(=O)[C@@H]2[C@@H](O)CCN2C(=O)[C@H]([C@H](O)CCN)NC(=O)[C@H]([C@H](O)[C@@H](O)c2ccc(O)cc2)NC(=O)[C@@H]2C[C@@H](O)CN2C(=O)[C@H]([C@@H](C)O)NC1=O` [CASPOFUNGIN], the “fold change (FC)” value with Nakaseomyces glabratus [1] is given as more than 3.5; with Nakaseomyces glabratus [4] it was “>=3.8”; with Nakaseomyces glabratus [7], more than 2; in the assay on Nakaseomyces glabratus [10], more than 2. Moreover, the result in the assay on Nakaseomyces glabratus [2], with Nakaseomyces glabratus [3], in the assay with Nakaseomyces glabratus [9], with Nakaseomyces glabratus [11] and in the assay with Nakaseomyces glabratus [12] was inactive. Besides, the log10cfu in the assay on Nakaseomyces glabratus [5] is given as 4.2 /ml; in the assay on Nakaseomyces glabratus [6] it was 4.2 /ml; in the assay with Nakaseomyces glabratus [8], 1.6 /ml; in the assay with Nakaseomyces glabratus [13], 2.6 /ml.
